Test results as given in publication PMC7887271, “Fast acting allosteric phosphofructokinase inhibitors block trypanosome glycolysis and cure acute African trypanosomiasis in mice” (Nature Communications, 2021).
“And” between values parts separate entries of the source, which are not always exact repeats. Identical values can stand only once.

System: T. b. brucei GVR35-Luc2
Experiment: T. b. brucei GVR35-Luc2 time-to-kill assay (luciferin)
Format: cell-based
Conditions: for Luminescence, Average / Luminescence, individual replicates: Time to kill assay for GVR35 cells
Protocol: Enzyme activity was measured using an aldolase/TIM linked assay at 25 °C. […] Experiments were carried out in duplicate. Data are presented as mean values ± standard deviation. […] Source data are provided as a Source Data File. b Kill time of CTCB-405 compared with existing HAT drugs in the clinic. […] Over 99% of trypanosomes were killed in under 30 min compared with much slower killing rates for the other drugs. The points on the graph for CTCB-405 were determined from two independent biological replicate experiments with each time point measured twice (using duplicate technical replicates). The ESD for each point on the graph is between 0.7 and 1.4%. For drugs in clinical use each point on the graph is the average of two technical replicates from one experiment (with a maximum difference of 7.8% for any of the points). Source data are provided as a Source Data File.
As predicted from the biology of the BSF that relies wholly on glycolysis for ATP production, inhibition of the pathway results in a very fast TTK. Two experimental methods were used to measure ATP levels as a real-time indicator of viability. For Tb427 parasites, a Cell Titre Glo kit was used and for the TbGVR35 bioluminescent strain, killing was assessed by adding luciferin which requires ATP to produce a luminescent signal (Supplementary Methods 4.3 and 4.4). […] The BSF of T. brucei cannot produce ATP by oxidative phosphorylation and is solely dependent on flux through the glycolytic pathway. The clear correlation between inhibitor dose and reduction in ATP production, as observed in the TTK assays strongly supports the proposed mode of action of the CTCB compounds is by blocking glycolysis. It is a long-established experimental observation that withdrawal of glucose nutrient leads to rapid loss of motility and cell death. It has recently been shown that the BSF of T. brucei can proliferate on high levels of glycerol; however, we have shown that addition of glycerol to the medium has little effect on parasite killing by the CTCB compounds (Supplementary Table 3).
The killing of T. b. brucei GVR35-Luc2 was assessed by adding D-luciferin to live cells resulting in the production of light in the presence of ATP and luciferase activity. Compounds of interest were serially diluted from 16 µM to 0.5 µM in Modified HMI-9 medium and added into sterile white, flat bottom 96-well plate (Greiner Inc.). 32,000 trypanosomes were added to each well. The plates were incubated at 37 °C and 5% CO2. At the end of each incubation, 200 µg/ml of D-luciferin was added to each well and incubated for 10 min. Luminescence was measured using a BMG plate reader and percentage cell viability versus incubation time was determined.

[1] = GVR35 TTK, 24 h incubation, replicate wells

CNCCn1ccc2c(ccn2Cc2ccc(Cl)c(Cl)c2)c1=O [CTCB-435]
% Cell viability, single replicates (0.5 h): 0.549% and -0.0671% | % Inhibition, single replicates (0.5 h): 99% and 100% | % Cell viability (0.5 h, average): 0.247% and 0.241% | % Inhibition (0.5 h, mean, suramin, fexinidazole, SCYX-7158 11 µM, CTCB-405 4 µM): 100% | % Cell viability, single replicates (1 h): -0.883% and -0.918% | % Inhibition, single replicates (1 h): 101% | % Inhibition (1 h, mean, suramin, fexinidazole, SCYX-7158 11 µM, CTCB-405 4 µM): 101% | % Cell viability, single replicates (2 h): -0.287% and -0.261% | % Inhibition, single replicates (2 h): 100% | % Cell viability (2 h, average): -0.274% | % Inhibition (2 h, mean, suramin, fexinidazole, SCYX-7158 11 µM, CTCB-405 4 µM): 100% | % Cell viability, single replicates (4 h): -0.785% and -0.904% | % Inhibition, single replicates (4 h): 101% | % Cell viability (4 h, average): -0.843% and 0% and -0.844% | % Inhibition (4 h, mean, suramin, fexinidazole, SCYX-7158 11 µM, CTCB-405 4 µM): 101% | % Cell viability, single replicates (6 h): -0.726% and -0.643% | % Inhibition, single replicates (6 h): 101% | % Cell viability (6 h, average): -0.684% | % Inhibition (6 h, mean, suramin, fexinidazole, SCYX-7158 11 µM, CTCB-405 4 µM): 101% | % Cell viability, single replicates (8 h): -0.436% and -0.367% | % Inhibition, single replicates (8 h): 100% | % Cell viability (8 h, average): -0.401% | % Inhibition (8 h, mean, suramin, fexinidazole, SCYX-7158 11 µM, CTCB-405 4 µM): 100% | % Cell viability, Average (GVR35 TTK, 24 h incubation, average): -0.136% | Luminescence (medium-subtracted), Average (GVR35 TTK, 24 h incubation, average of replicates): -47.5 | % Inhibition (GVR35 TTK, 24 h incubation, from average): 100% | % Cell viability, individual replicates [1]: -0.139% and -0.134% | % Inhibition, individual replicates [1]: 100% | Luminescence (medium-subtracted), individual replicates [1]: -66.5 and -28.5 | % Cell viability (GVR35 TTK, 24 h sheet, summary line marked "4"): -0.137% | Luminescence, Average (0.5 hour incubation): 71 | Luminescence, individual replicates (0.5 hour incubation): 100 and 43 | Luminescence, Average (1hour incubation): 2 | Luminescence, individual replicates (1hour incubation): 3 and 1 | Luminescence, Average (2hour incubation): 50 | Luminescence, individual replicates (2hour incubation): 49 and 50 | Luminescence, Average (4hour incubation): -42 | Luminescence, individual replicates (4hour incubation): -34 and -51 | Luminescence, Average (6hour incubation): -65 | Luminescence, individual replicates (6hour incubation): -78 and -51 | Luminescence, Average (8hour incubation): -1.5 | Luminescence, individual replicates (8hour incubation): -12 and 9 | Luminescence, Average (24hour incubation): -48 | Luminescence, individual replicates (24hour incubation): -67 and -29
